Measured values as given in patent US7414138B2, “Benzoxazole and benzodiazole UV-A sunscreens” (DSM IP Assets B.V., priority 2002, dated 2008).

Assays:
[1] = Solubility measurement in cosmetic solvents (saturated solution, UV spectroscopy); details: for solubility in Crodamol DA: Crodamol DA (diisopropyl adipate); for solubility in Crodamol DA / solubility in Cétiol LC: room temperature, 18 hours; for solubility in Cétiol LC: Cétiol LC (cocoyl caprylate caprate)
Experimental: An excess of the UV sunscreen was placed in a flask, containing Cétiol LC (cocoyl caprylate caprate) and Crodamol DA (diisopropyl adipate), respectively. The suspension was mixed and treated in an ultrasound bath for 10 minutes. After standing at room temperature for 18 hours, the solution over the remaining crystals was filtered through a millipore microfilter (pore size of 0.45 μm). The concentration of this saturated solution was determined by means of UV spectroscopy in comparison with a calibration curve.

[2] = Photostability, irradiation in high dilution with 150 W Hg-lamp (on-line Hg-lamp/HPLC); assay type: physicochemical; details: for photostability (in words): irradiated in high dilution with a Hg-lamp 150 W from Heraeus
Experimental: The photostability is measured in an on-line system Hg-lamp/HPLC, using a 150 W Hg-lamp of Heraeus with Pyrex filter (2.3 mm) and a Teflon capillary tube with 0.3 mm inside diameter and a total length of 10 m. 3.6. mg of the sample is dissolved in 16 ml of MeOH and 10 μl of this solution injected. The degradation products are not separated. UV-absorption at a wavelength of 358 nm of the irradiated solution is measured periodically up to 14 minutes and the result is compared with the corresponding photostability of butyl methoxy dibenzoylmethane. The product was detected in >90%, indicating photostability, whereas only 16% of butyl methoxy dibenzoylmethane could be detected after 14 minutes of irradiation.
Alternatively, the measurement is performed according to the protocol described in the International Journal of Cosmetic Science 18, 167-177 (1996).

Structure (SMILES) | solubility in Crodamol DA [1] | solubility in Cétiol LC [1] | product detected after irradiation ([2]; MeOH solution, 150 W Hg-lamp with Pyrex filter, UV-absorption at 358 nm, after 14 minutes of irradiation) | melting point | photostability (in words) [2] | solubility in Cétiol LC (in words) ([1]; Cétiol LC) | solubility in Crodamol DA (in words) ([1]; Crodamol DA)
CCOC(=O)C(=Cc1ccc(-c2nc3ccccc3o2)cc1)C(=O)OCC [Example 1, 2-(4-Benzoxazol-2-yl-benzylidene)-malonic acid diethyl ester] | 11% | 4.5% | > 90% | 99 to 102 °C |  |  | 
CCCCC(CC)COC(=O)/C(C#N)=C/c1ccc(-c2nc3cc(C(C)(C)C)ccc3o2)cc1 (stereo not shown) [Example 2, 2-Cyano-3-{4-[5-tert.-butyl-benzoxazol-2-yl]-phenyl}-acrylic acid 2-ethylhexyl ester] | 7.4% | 3.8% |  | 80 to 81 °C | photostable |  | 
CCCCOC(=O)C(=Cc1ccc(-c2nc3ccccc3o2)cc1)C(=O)OCCCC [Example 3, 2-(4-Benzoxazol-2-yl-benzylidene)-malonic acid dibutyl ester] |  |  |  |  | photostable | miscible | 
CCCCC(CC)COC(=O)/C(C#N)=C/c1ccc(-c2nc3ccccc3o2)cc1 (stereo not shown) [Example 4, 2-Cyano-3-{4-benzoxazol-2-yl-phenyl}-acrylic acid 2-ethylhexyl ester] | 2.8% | 1.6% |  | 84 to 85 °C | photostable after E/Z isomerisation |  | 
CCOC(=O)C(=Cc1ccc(-c2nc3ccc(O)cc3o2)cc1)C(=O)OCC [Example 6, 2-(4-[6-Hydroxy-benzoxazol-2-yl]-benzylidene)-malonic acid diethyl ester] | 1.6% |  |  | 153 to 155 °C | photostable |  | 
CCCCC(CC)COc1ccc2nc(-c3ccc(C=C(C(=O)OCC)C(=O)OCC)cc3)oc2c1 (stereo not shown) [Example 7] |  | 10.2% |  | 50 to 52 °C | photostable |  | 
CCOCCOCCOc1ccc2nc(-c3ccc(C=C(C(=O)OCC)C(=O)OCC)cc3)oc2c1 [Example 8] |  | 4.6% |  | 43 to 45 °C | photostable |  | 
C=C(COc1ccc2nc(-c3ccc(C=C(C(=O)OCC)C(=O)OCC)cc3)oc2c1)[Si](C)(O[Si](C)(C)C)O[Si](C)(C)C [Example 9] |  |  |  |  | excellent photostability |  | unlimited solubility
